Reference: ChEMBL document CHEMBL1201862, “PubChem BioAssay data set” (2004)
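Protocol summary: plate cells (96-well), add compound at 5 concentrations, incubate 48 h, interpolate endpoints linearly. GI50: concentration for 50% inhibition of growth.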 Active and inactive are the calls of the source. No stated cut-off is given here; in the data, active = GI50 up to about 1.1 µM and inactive = higher.

Legend:
Assay in all cases: DTP human tumour cell line panel, 48 h
KM-20L2 = system: KM-20L2
XF498 = system: XF498
DMS-114 = system: DMS-114
M19-MEL = system: M19-MEL
DLD-1 = system: DLD-1
DMS-273 = system: DMS-273
SNB-78 = system: SNB-78
HOP-18 = system: HOP-18
RXF 631 = system: RXF 631

Measured: GI50

CC(C)OP(=O)(OC(C)C)/C(Cl)=N/Nc1ccc([N+](=O)[O-])cc1
inactive: KM-20L2 50.8 µM | XF498 > 100 µM | DMS-114 81.8 µM | M19-MEL > 100 µM | DLD-1 > 100 µM | DMS-273 > 100 µM | SNB-78 80.4 µM

COc1cc(/C=C\c2ccncc2)cc(OC)c1OC
inactive: KM-20L2 65.3 µM | HOP-18 > 100 µM | XF498 29.1 µM | DMS-114 57.3 µM | DLD-1 > 100 µM | RXF 631 64.7 µM | DMS-273 63.8 µM | SNB-78 > 100 µM

CS/C(=N\c1nccs1)NC(=O)c1cccc(Cl)c1
inactive: KM-20L2 > 100 µM | HOP-18 > 100 µM | DMS-114 > 100 µM | M19-MEL 85.9 µM | DLD-1 > 100 µM | RXF 631 16.8 µM | DMS-273 > 100 µM | SNB-78 > 100 µM

COC(=O)C1CSC(c2csc(CCN)n2)=N1 (stereo not drawn)
inactive: KM-20L2 > 100 µM | HOP-18 > 100 µM | XF498 > 100 µM | DMS-114 > 100 µM | M19-MEL > 100 µM | DMS-273 > 100 µM | SNB-78 > 100 µM

COc1ccc(/C=N/N=C(\N)NO)c(OC)c1
inactive: HOP-18 14.6 µM | DMS-114 18.1 µM | M19-MEL 24.5 µM | DLD-1 > 100 µM | SNB-78 > 100 µM

Cc1cc(C(=O)N2CCN(Cc3ccccc3)CC2)c(C)o1
inactive: KM-20L2 > 100 µM | HOP-18 > 100 µM | XF498 > 100 µM | DMS-114 > 100 µM | M19-MEL > 100 µM | DLD-1 > 100 µM | SNB-78 > 100 µM

CC(C)(C)C(=O)C(c1ccc(-c2cscn2)cc1)c1ccc(-c2cscn2)cc1
inactive: KM-20L2 > 100 µM | HOP-18 67.5 µM | XF498 27.3 µM | M19-MEL 65 µM | DLD-1 > 79.6 µM | RXF 631 22.7 µM | DMS-273 58.3 µM | SNB-78 18.5 µM

c1ccc(CN2COc3c(ccc4c5c(ccc34)CN(Cc3ccccc3)CO5)C2)cc1
inactive: KM-20L2 26.2 µM | HOP-18 52 µM | DMS-114 > 100 µM | M19-MEL > 100 µM | DLD-1 > 100 µM | RXF 631 > 100 µM | SNB-78 > 100 µM

CCN(CC)CC(C(=O)Nc1c(C)cccc1C)/C(C)=N\NC(=S)NN (stereo not drawn)
inactive: KM-20L2 > 100 µM | XF498 > 100 µM | M19-MEL > 100 µM | DLD-1 > 100 µM | RXF 631 > 100 µM | DMS-273 > 100 µM

Clc1cc2nc[nH]c2cc1Cl
inactive: HOP-18 > 100 µM | XF498 20.1 µM | DMS-114 > 100 µM | M19-MEL > 100 µM | DLD-1 > 100 µM | DMS-273 > 100 µM | SNB-78 > 100 µM

Nc1ncnc2c1ncn2C1(CO)OC(CO)C(O)C1O (stereo not drawn)
inactive: KM-20L2 > 100 µM | HOP-18 > 100 µM | XF498 > 100 µM | DMS-114 > 100 µM | DLD-1 > 100 µM | RXF 631 > 100 µM | DMS-273 > 100 µM | SNB-78 > 100 µM

CC1CCCc2c1c1ccc3c(O)cccc3c1oc2=O (stereo not drawn)
inactive: KM-20L2 > 100 µM | HOP-18 26.6 µM | XF498 55 µM | DMS-114 19.6 µM | M19-MEL > 100 µM | DLD-1 > 100 µM | DMS-273 31.1 µM | SNB-78 23.1 µM

COC(=O)C1(O)c2ccccc2N=C2C1CCN2C (stereo not drawn)
inactive: KM-20L2 > 100 µM | HOP-18 > 100 µM | XF498 > 100 µM | DMS-114 > 100 µM | DLD-1 > 100 µM | SNB-78 > 100 µM

c1c[nH]c(Cc2nc(Cc3c[nH]cn3)c[nH]2)n1
active: KM-20L2 0.946 µM
inactive: HOP-18 8.28 µM | XF498 25.8 µM | DMS-114 16.3 µM | M19-MEL 15.4 µM | DLD-1 4.22 µM | DMS-273 15.2 µM

N#CCc1nc2c(s1)C(=O)c1ccccc1C2=O
inactive: KM-20L2 38.4 µM | HOP-18 13.8 µM | DMS-114 6.24 µM | M19-MEL 2.84 µM | RXF 631 18.2 µM | DMS-273 15.8 µM | SNB-78 20 µM

CCOC(=O)NC(=O)c1cn(C2CCCCC2)c(=O)[nH]c1=O
inactive: KM-20L2 36.3 µM | HOP-18 > 100 µM | XF498 > 100 µM | M19-MEL 76.4 µM | DLD-1 61.8 µM | RXF 631 > 100 µM | DMS-273 73.3 µM | SNB-78 65.9 µM

COc1cc(O)c2c(c1)O[C@@H]1OCC[C@H]21
inactive: KM-20L2 > 100 µM | HOP-18 > 100 µM | XF498 > 100 µM | DMS-114 > 100 µM | DLD-1 > 100 µM | DMS-273 > 100 µM | SNB-78 > 100 µM

O=C1C2Nc3ccccc3SC2C(=O)N1c1ccc(Br)cc1 (stereo not drawn)
inactive: KM-20L2 33.2 µM | XF498 35.6 µM | DMS-114 13.5 µM | M19-MEL 57.1 µM | DLD-1 15.2 µM | DMS-273 21.6 µM | SNB-78 14.2 µM

COc1cc2c(cc1OC)-c1c(cc(OC)c(OC)c1OC)C2=O
inactive: KM-20L2 > 100 µM | HOP-18 > 100 µM | DMS-114 > 100 µM | M19-MEL > 100 µM | DLD-1 > 100 µM | RXF 631 92.9 µM

CCOC(=O)C(=O)Nc1nc2ccc(OC)cc2s1
inactive: KM-20L2 > 100 µM | HOP-18 > 100 µM | M19-MEL > 100 µM | DLD-1 > 100 µM | DMS-273 > 100 µM | SNB-78 > 100 µM

NC(CCSCC(F)F)C(=O)O (stereo not drawn)
inactive: KM-20L2 > 100 µM | HOP-18 > 100 µM | XF498 > 100 µM | DMS-114 > 100 µM | M19-MEL > 100 µM | DLD-1 > 100 µM | RXF 631 > 100 µM | DMS-273 > 100 µM | SNB-78 > 100 µM

COc1cccc2c1C(CO)N1C(C#N)C3CC(C(=O)O)C(C1C2)N3C (stereo not drawn)
inactive: KM-20L2 3.33 µM | XF498 1.61 µM | DMS-114 2.21 µM | M19-MEL 3.54 µM | DLD-1 2.79 µM | DMS-273 2.77 µM | SNB-78 2.81 µM

O=C1CCNC/C1=C\c1ccccc1
inactive: KM-20L2 14.7 µM | HOP-18 > 10 µM | XF498 23.9 µM | DMS-114 24.1 µM | M19-MEL 17.9 µM | DLD-1 18.9 µM | RXF 631 26.5 µM | DMS-273 25.8 µM | SNB-78 32.8 µM

CC1=CP(=O)(c2ccccc2)C=C(C)C1=C(Cl)Cl (stereo not drawn)
inactive: KM-20L2 2.48 µM | HOP-18 18.7 µM | XF498 17.4 µM | DMS-114 10.8 µM | M19-MEL 12.2 µM | DLD-1 8.17 µM | DMS-273 3.3 µM | SNB-78 2.98 µM
